From ChEMBL document CHEMBL4184149, “Discovery and process development of a novel TACE inhibitor for the topical treatment of psoriasis” (Bioorg Med Chem, 2018)
Values after ≈ are worked out from the molar mass of the structure shown. Active and inactive are the calls of the source. No cut-off for these calls is given here.

What was measured:
[1] = molecular target: Disintegrin and metalloproteinase domain-containing protein 17 (Homo sapiens, UniProt P78536); test: Inhibition of TACE in human PBMC assessed as reduction in LPS-induced TNFalpha production incubated overnight by HTRF assay; format: cell-based
Disintegrin and metalloproteinase domain-containing protein 17, sequence (P78536 whole entry, the tested form may be a part): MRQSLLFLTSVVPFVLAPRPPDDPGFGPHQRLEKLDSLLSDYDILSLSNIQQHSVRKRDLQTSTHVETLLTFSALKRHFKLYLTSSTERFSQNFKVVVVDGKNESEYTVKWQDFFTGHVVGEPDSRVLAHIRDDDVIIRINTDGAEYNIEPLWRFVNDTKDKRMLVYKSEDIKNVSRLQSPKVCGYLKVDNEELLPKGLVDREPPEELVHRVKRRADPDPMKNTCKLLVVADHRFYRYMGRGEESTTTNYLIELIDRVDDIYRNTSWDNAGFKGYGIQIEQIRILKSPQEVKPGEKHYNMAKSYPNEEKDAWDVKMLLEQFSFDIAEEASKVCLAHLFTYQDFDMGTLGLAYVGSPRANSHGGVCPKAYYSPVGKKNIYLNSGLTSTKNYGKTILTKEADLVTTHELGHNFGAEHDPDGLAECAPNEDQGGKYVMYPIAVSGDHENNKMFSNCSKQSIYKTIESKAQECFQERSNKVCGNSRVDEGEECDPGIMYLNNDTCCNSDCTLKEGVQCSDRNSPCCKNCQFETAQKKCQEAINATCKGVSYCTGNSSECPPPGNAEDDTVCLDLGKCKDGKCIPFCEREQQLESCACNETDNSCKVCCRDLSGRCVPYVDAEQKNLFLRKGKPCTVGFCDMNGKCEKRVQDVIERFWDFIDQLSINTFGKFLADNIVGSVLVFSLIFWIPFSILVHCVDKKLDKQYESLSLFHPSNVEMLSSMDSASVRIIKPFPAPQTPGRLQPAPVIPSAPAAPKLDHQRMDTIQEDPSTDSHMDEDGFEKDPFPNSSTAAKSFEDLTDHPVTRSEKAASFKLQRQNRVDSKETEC

[2] = Solubility of the compound in propylene glycol/ethanol96 at 30 mg/ml after 24 hrs by UV-spectrometric analysis; format: physicochemical; conditions: for solubility at 24 h: propylene glycol/ethanol96; for solubility: 24 h
[3] = (§1) Intrinsic clearance in human hepatocytes assessed per million cells at 1 uM by LC-MS/MS analysis; format: ADME, cell-based, Hepatocyte; conditions: human hepatocytes, read-out: CLH
TK6 [4] = test: Genotoxicity in p53-competent human TK6 cells in presence of Sprague-Dawley rat S9 fraction by GADD45alpha GFP reporter assay; format: toxicity, cell-based
TK6 [5] = test: Genotoxicity in p53-competent human TK6 cells in absence of Sprague-Dawley rat S9 fraction by GADD45alpha GFP reporter assay; format: toxicity, cell-based
Mus musculus = test: Antiinflammatory activity in topically applied oxazolone-induced chronic skin inflammation hairless SKH1 mouse model assessed as decrease in skin lesions applied topically for 10 days in combination with oxazolone; format: functional, organism-based
[6] = Aqueous solubility of the compound in PBS at pH 7.4 at 20 degC after 24 hrs by HPLC analysis; format: physicochemical
[7] = Stability of the compound in propylene glycol/ethanol96 at 0.1 mg/ml measured up to 3 months by HPLC analysis; format: physicochemical; conditions: read-out: Stability
[8] = Half life in human neonatal keratinocytes at 1 uM by LC-MS/MS analysis; format: ADME, cell-based
[9] = Stability of the compound in propylene glycol/ethanol96 assessed as parent compound remaining at 0.1 mg/ml after 1 month at 40 degC by HPLC analysis; format: physicochemical; conditions: read-out: Stability
[10] = Photoirritancy factor, ratio of EC50 for human neonatal keratinocytes under dark condition to EC50 for human neonatal keratinocytes under 5 J/cm2 UV light exposure; format: toxicity; conditions: read-out: Ratio EC50
Hepatocyte = test: as §1; format: ADME, cell-based; conditions: hepatocytes, 1 µM

## Cc1cc(COc2ccc(S(=O)(=O)NC3(C(=O)NO)CN(C(=O)CC(C)C)C3)cc2)c2ccccc2n1
[1]
  IC50: 0.033 µM
[2]
  solubility at 24 h: 5000 µM (≈ 2630 µg/mL)
[3]
  hepatocyte CLint at 1 µM: 6 µL/min/1e6 cells

## Cc1cc(COc2ccc(S(=O)(=O)NC3(C(=O)NO)CC3)cc2)c2ccccc2n1
[1]
  IC50: 0.21 µM
[2]
  solubility at 24 h: 46000 µM (≈ 19700 µg/mL)
TK6 [4]
  Activity: Toxic
TK6 [5]
  Activity: Toxic

## CC(=O)N1CC(CC(=O)NO)(NS(=O)(=O)c2ccc(OCc3cc(C)nc4ccccc34)c(C)c2)C1
[1]
  IC50: > 10 µM
[2]
  solubility at 24 h: 400 µM (≈ 205 µg/mL)

## CCCCC(=O)O[C@]1(C(=O)CO)[C@@H](C)C[C@H]2[C@@H]3CCC4=CC(=O)C=C[C@]4(C)[C@@]3(F)[C@@H](O)C[C@@]21C
Mus musculus
  Activity: Active

## CC#CCOc1ccc(S(=O)(=O)NC2(CC(=O)NO)CN(C(C)=O)C2)cc1
[1]
  IC50: 1.3 µM
[2]
  solubility at 24 h: 1800 µM (≈ 712 µg/mL)

## COCCN(C1(C(=O)NO)CN(C(=O)C(C)C)C1)S(=O)(=O)c1ccc(OCc2cc(C)nc3ccccc23)cc1
[1]
  IC50: 0.031 µM
[2]
  solubility at 24 h: 8900 µM (≈ 5080 µg/mL)
[3]
  hepatocyte CLint at 1 µM: 18 µL/min/1e6 cells

## CC(=O)N1CC(CC(=O)NO)(NS(=O)(=O)c2ccc(SCc3cc(C)nc4ccccc34)cc2)C1
[1]
  IC50: 0.72 µM
[2]
  solubility at 24 h: 1000 µM (≈ 515 µg/mL)

## Cc1cc(COc2ccc(S(=O)(=O)N(C(C)C)C3(C(=O)NO)CN(C(=O)C(C)C)C3)cc2)c2ccccc2n1
[1]
  IC50: 0.79 µM
[2]
  solubility at 24 h: 2200 µM (≈ 1220 µg/mL)
[3]
  hepatocyte CLint at 1 µM: 17 µL/min/1e6 cells

## CC(=O)N1CC(CC(=O)NO)(N(C)S(=O)(=O)c2ccc(OCc3cc(C)nc4ccccc34)cc2)C1
[1]
  IC50: 0.59 µM

## Cc1cc(COc2ccc(S(=O)(=O)NC3(CC(=O)NO)CN(C(=O)OC(C)C)C3)cc2)c2ccccc2n1
[1]
  IC50: 0.006 µM
[6]
  solubility at 24 h: 80 µM (≈ 43.4 µg/mL)
[2]
  solubility at 24 h: 1100 µM (≈ 597 µg/mL)

## CCN(C1(C(=O)NO)CN(C(=O)C(C)C)C1)S(=O)(=O)c1ccc(OCc2cc(C)nc3ccccc23)cc1
[1]
  IC50: 0.037 µM
[2]
  solubility at 24 h: 44000 µM (≈ 23800 µg/mL)
[3]
  hepatocyte CLint at 1 µM: 11 µL/min/1e6 cells

## Cc1cc(COc2ccc(S(=O)(=O)NC(C)(C)CC(=O)NO)cc2)c2ccccc2n1
[1]
  IC50: 0.043 µM
[2]
  solubility at 24 h: 1600 µM (≈ 710 µg/mL)

## Cc1cc(COc2ccc(S(=O)(=O)NC3(CC(=O)NO)CN(C(=O)CC(C)C)C3)cc2)c2ccccc2n1
[1]
  IC50: 0.006 µM
[2]
  solubility at 24 h: 900 µM (≈ 487 µg/mL)
[3]
  hepatocyte CLint at 1 µM: 13 µL/min/1e6 cells

## CC(=O)N1CCC(NS(=O)(=O)c2ccc(OCc3cc(C)nc4ccccc34)cc2)(C(=O)NO)CC1
[1]
  IC50: 0.061 µM
[2]
  solubility at 24 h: 59000 µM (≈ 30200 µg/mL)
TK6 [4]
  Activity: Toxic
TK6 [5]
  Activity: Toxic

## Cc1cc(COc2ccc(S(=O)(=O)NCCC(=O)NO)cc2)c2ccccc2n1
[1]
  IC50: 2.3 µM
[2]
  solubility at 24 h: 4100 µM (≈ 1700 µg/mL)

## CC(=O)N1CC2(C1)CC(NS(=O)(=O)c1ccc(OCc3cc(C)nc4ccccc34)cc1)(C(=O)NO)C2
[1]
  IC50: 0.036 µM
[6]
  solubility at 24 h: 84 µM (≈ 44.1 µg/mL)
[2]
  solubility at 24 h: 17000 µM (≈ 8920 µg/mL)
[7]
  remaining at 0.1 mg/ml: 95%
[3]
  hepatocyte CLint at 1 µM: < 5 µL/min/1e6 cells
[8]
  half-life at 1 µM: > 24 h
TK6 [4]
  Activity: Toxic
TK6 [5]
  Activity: Toxic

## Cc1cc(COc2ccc(S(=O)(=O)NC[C@@H](C(=O)NO)N3CCCCC3)cc2)c2ccccc2n1
[6]
  solubility at 24 h: < 1 µM
[2]
  solubility at 24 h: 8000 µM (≈ 3990 µg/mL)
[7]
  remaining at 0.1 mg/ml: 89%
[3]
  hepatocyte CLint at 1 µM: 24 µL/min/1e6 cells
[8]
  half-life at 1 µM: > 24 h
TK6 [4]
  Activity: Non-Toxic
TK6 [5]
  Activity: Non-Toxic

## Cc1cc(COc2ccc(S(=O)(=O)NC3(C(=O)NO)CCCCC3)cc2)c2ccccc2n1
[1]
  IC50: 0.1 µM
[2]
  solubility at 24 h: 11000 µM (≈ 5170 µg/mL)
TK6 [4]
  Activity: Non-Toxic
TK6 [5]
  Activity: Non-Toxic

## Cc1cc(COc2ccc(S(=O)(=O)NC3(C(=O)NO)CCC3)cc2)c2ccccc2n1
[1]
  IC50: 0.03 µM
TK6 [4]
  Activity: Toxic
TK6 [5]
  Activity: Toxic

## CCCCN1CC(CC(=O)NO)(NS(=O)(=O)c2ccc(OCc3cc(C)nc4ccccc34)cc2)C1
[1]
  IC50: 0.012 µM
[6]
  solubility at 24 h: 70 µM (≈ 35.9 µg/mL)
[2]
  solubility at 24 h: 4900 µM (≈ 2510 µg/mL)
[9]
  remaining at 730.5 h, 0.1 mg/ml: 72%

## Cc1cc(COc2ccc(S(=O)(=O)NC3(CC(=O)NO)COC3)cc2)c2ccccc2n1
[1]
  IC50: 0.01 µM
[2]
  solubility at 24 h: 200 µM (≈ 91.5 µg/mL)

## Cc1cc(COc2ccc(S(=O)(=O)NCC(=O)NO)cc2)c2ccccc2n1
[1]
  IC50: 0.082 µM
[2]
  solubility at 24 h: 100 µM (≈ 40.1 µg/mL)

## CC(=O)N1CC2(C1)CC(CC(=O)NO)(NS(=O)(=O)c1ccc(OCc3cc(C)nc4ccccc34)cc1)C2
[1]
  IC50: 0.004 µM
[2]
  solubility at 24 h: 3000 µM (≈ 1620 µg/mL)

## Cc1cc(COc2ccc(S(=O)(=O)NC(C)(C)C(=O)NO)cc2)c2ccccc2n1
[1]
  IC50: 0.14 µM

## CC(=O)N1CC(CC(=O)NO)(NS(=O)(=O)c2ccc(OCc3cc(C)nc4c(F)cccc34)cc2)C1
[1]
  IC50: 0.061 µM

## CC(=O)N1CC(CC(=O)NO)(NS(=O)(=O)c2ccc(OCc3cc(C)nc4ccccc34)cc2)C1
[1]
  IC50: 0.008 µM
[6]
  solubility at 24 h: < 0.5 µM
[2]
  solubility at 24 h: 800 µM (≈ 399 µg/mL)
[7]
  remaining at 0.1 mg/ml: 98%
[3]
  hepatocyte CLint at 1 µM: < 5 µL/min/1e6 cells
[8]
  half-life at 1 µM: > 24 h
[10]
  selectivity ratio: 1
TK6 [4]
  Activity: Non-Toxic
TK6 [5]
  Activity: Non-Toxic

## CC(=O)N1CC(CC(=O)NO)(NS(=O)(=O)c2ccc(OCc3cc(C)nc4ccccc34)cc2C)C1
[1]
  IC50: > 10 µM
[2]
  solubility at 24 h: 900 µM (≈ 461 µg/mL)

## Cc1cc(COc2ccc(S(=O)(=O)N(C)C3(C(=O)NO)CN(CCC(F)(F)F)C3)cc2)c2ccccc2n1
[9]
  remaining at 730.5 h, 0.1 mg/ml: 98%

## Cc1cc(COc2ccc(S(=O)(=O)NC3(CC(=O)NO)CCN(C(=O)CC(C)C)C3)cc2)c2ccccc2n1 (stereo in doubt; 18g)
[1]
  IC50: 0.008 µM
[2]
  solubility: 17000 µM (≈ 9430 µg/mL)
TK6 [4]
  Activity: Toxic
TK6 [5]
  Activity: Toxic

## Cc1cc(COc2ccc(S(=O)(=O)NC3(C(=O)NO)CN(C(=O)C(C)C)C3)cc2)c2ccccc2n1
[1]
  IC50: 0.016 µM
[2]
  solubility at 24 h: 17000 µM (≈ 8710 µg/mL)
[3]
  hepatocyte CLint at 1 µM: < 5 µL/min/1e6 cells
TK6 [4]
  Activity: Non-Toxic
TK6 [5]
  Activity: Non-Toxic

## Cc1cc(COc2ccc(S(=O)(=O)NC3(CC(=O)NO)CN(CCC(F)(F)F)C3)cc2)c2ccccc2n1
[1]
  IC50: 0.01 µM
[2]
  solubility at 24 h: 3400 µM (≈ 1880 µg/mL)
[9]
  remaining at 730.5 h, 0.1 mg/ml: 88%

## Cc1cc(COc2ccc(S(=O)(=O)NC3(CC(=O)NO)CCN(C(=O)CC(C)C)C3)cc2)c2ccccc2n1 (stereo in doubt; 18h)
[1]
  IC50: 0.042 µM
[2]
  solubility: 7900 µM (≈ 4380 µg/mL)

## Cc1cc(COc2ccc(S(=O)(=O)NC3(CC(=O)NO)CN(C(=O)N4CCCCC4)C3)cc2)c2ccccc2n1
[1]
  IC50: 0.005 µM
[6]
  solubility at 24 h: 80 µM (≈ 45.4 µg/mL)
[2]
  solubility at 24 h: 500 µM (≈ 284 µg/mL)

## Cc1cc(COc2ccc(S(=O)(=O)NC3(C(=O)NO)CCCC3)cc2)c2ccccc2n1
[1]
  IC50: 0.068 µM
[2]
  solubility at 24 h: 200 µM (≈ 91.1 µg/mL)

## Cc1cc(COc2ccc(S(=O)(=O)NC3(CC(=O)NO)CN(C(=O)C(C)(C)N(C)C)C3)cc2)c2ccccc2n1
[1]
  IC50: 0.0046 µM
[2]
  solubility at 24 h: 11000 µM (≈ 6270 µg/mL)
Hepatocyte
  Stability: Unstable
TK6 [4]
  Activity: Non-Toxic
TK6 [5]
  Activity: Non-Toxic

## CC(=O)N1CC(CC(=O)NO)(NS(=O)(=O)c2ccc(Cc3cc(C)nc4ccccc34)cc2)C1
[1]
  IC50: 0.24 µM
[2]
  solubility at 24 h: 1900 µM (≈ 917 µg/mL)

## Cc1cc(COc2ccc(S(=O)(=O)NC3(C(=O)NO)CN(CCC(F)(F)F)C3)cc2)c2ccccc2n1
[9]
  remaining at 730.5 h, 0.1 mg/ml: 58%

## Cc1cc(COc2ccc(S(=O)(=O)NC3(CC(=O)NO)CCC3)cc2)c2ccccc2n1
[1]
  IC50: 0.013 µM

## CCc1cc(COc2ccc(S(=O)(=O)NC3(CC(=O)NO)CN(C(C)=O)C3)cc2)c2ccccc2n1
[1]
  IC50: 0.027 µM
[2]
  solubility at 24 h: 400 µM (≈ 205 µg/mL)

## Cc1cc(COc2ccc(S(=O)(=O)NC3(CC(=O)NO)CC3)cc2)c2ccccc2n1
[1]
  IC50: 0.084 µM
[2]
  solubility at 24 h: 1600 µM (≈ 706 µg/mL)
